Series [1] has as its target T1, Amine oxidase [flavin-containing] A (Homo sapiens, UniProt P21397).
T1 sequence (P21397 whole entry): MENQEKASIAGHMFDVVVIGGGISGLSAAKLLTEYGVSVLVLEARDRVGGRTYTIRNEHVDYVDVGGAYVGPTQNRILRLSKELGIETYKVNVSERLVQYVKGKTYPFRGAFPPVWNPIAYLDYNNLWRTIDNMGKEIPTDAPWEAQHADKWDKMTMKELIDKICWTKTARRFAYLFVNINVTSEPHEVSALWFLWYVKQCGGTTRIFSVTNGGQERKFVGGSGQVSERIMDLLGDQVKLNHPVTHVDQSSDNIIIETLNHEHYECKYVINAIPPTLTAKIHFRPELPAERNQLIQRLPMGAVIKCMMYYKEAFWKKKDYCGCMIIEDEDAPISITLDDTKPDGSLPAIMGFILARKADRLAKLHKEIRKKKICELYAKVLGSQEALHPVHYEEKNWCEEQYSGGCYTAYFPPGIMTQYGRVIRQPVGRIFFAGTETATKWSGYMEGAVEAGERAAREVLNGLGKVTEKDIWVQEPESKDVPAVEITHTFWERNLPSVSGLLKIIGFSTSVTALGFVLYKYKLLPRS
Kind of series: Inhibition of human MAO-A preincubated for 15 mins followed by p-tyramine substrate addition and measured after 20 mins by Amplex red reagent based fluorescence assay.

Series [2] addresses T2, Amine oxidase [flavin-containing] B (Homo sapiens, UniProt P27338).
T2 sequence (P27338 whole entry): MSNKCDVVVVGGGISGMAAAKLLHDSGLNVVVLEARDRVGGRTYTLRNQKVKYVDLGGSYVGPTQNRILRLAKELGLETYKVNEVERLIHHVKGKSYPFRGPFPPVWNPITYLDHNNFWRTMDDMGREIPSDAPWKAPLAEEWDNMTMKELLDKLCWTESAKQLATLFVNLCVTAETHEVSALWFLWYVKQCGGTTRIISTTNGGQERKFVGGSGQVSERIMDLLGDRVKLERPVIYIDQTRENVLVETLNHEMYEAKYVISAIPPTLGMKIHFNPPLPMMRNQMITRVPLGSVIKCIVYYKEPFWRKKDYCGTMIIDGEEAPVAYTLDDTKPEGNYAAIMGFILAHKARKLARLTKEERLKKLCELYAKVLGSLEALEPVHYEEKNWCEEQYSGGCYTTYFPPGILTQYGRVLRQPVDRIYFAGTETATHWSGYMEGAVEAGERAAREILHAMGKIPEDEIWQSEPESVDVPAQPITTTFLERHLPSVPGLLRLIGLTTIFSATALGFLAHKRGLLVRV

The species named for series [3] is Homo sapiens. Kind of series: Selectivity ratio of IC50 for human MAO-A to IC50 for human MAO-B.
Series [4] in a line: Antioxidant activity assessed as inhibition of DPPH free radical after 30 mins by UV-Visible spectrophotometric analysis. In kind it is functional. Background: Loss of DPPH colour is used to gauge radical scavenging.
A short description of series [5]: Antioxidant activity assessed as ABTS radical cation scavenging activity by measuring trolox equivalents after 150 mins. In kind it is functional.
A short description of series [6]: Antioxidant activity assessed as ferric ion reduction by measuring trolox equivalents after 3 to 5 mins by FRAP assay. In kind it is functional.
In series [7] the test system is PC-12. Kind of series: Neuroprotection against H2O2-induced cell death in rat PC12 cells at 6.25 to 25 uM preincubated for 4 hrs followed by H2O2 addition measured after 24 hrs by MTT assay. In kind it is functional, cell-based. A general note: Formazan colour is commonly taken as a measure of viable cells.
Series [8] has as its system PC-12. Kind of series: Neuroprotection against rotenone-induced cell death in rat PC12 cells preincubated for 4 hrs followed by rotenone addition measured after 24 hrs by MTT assay. In kind it is functional, cell-based.
Series [9] deals with PC-12. Briefly: Neuroprotection against oligomycin A-induced cell death in rat PC12 cells preincubated for 4 hrs followed by oligomycin A addition measured after 24 hrs by MTT assay. In kind it is functional, cell-based.
Series [10] relates to PC-12. Kind of series: Neurotoxicity in rat PC12 cells at 30 uM after 24 hrs by MTT assay. In kind it is toxicity, cell-based. As to conditions: pc-12, 24 h.
In series [11] the test system is PC-12. Kind of series: Neuroprotection against H2O2-induced oxidative damage in rat PC12 cells assessed as reduction in ROS production preincubated for 4 hrs followed by H2O2 addition and measured after 24 hrs by DCFH-DA staining-based flow cytometric analysis. In kind it is functional, cell-based. A general note: Flow cytometry measures light scatter and fluorescence of single cells or particles in a stream.

Series [12] has as its system PC-12. Kind of series: Neuroprotection against H2O2-induced oxidative damage in rat PC12 cells assessed as reduction in ROS production by measuring mean fluorescence intensity at 2.5 uM preincubated for 4 hrs followed by H2O2 addition measured after 24 hrs by DCFH-DA staining-based flow cytometric analysis (reference value: 102489). In kind it is functional.
Series [13] deals with PC-12. Kind of series: Neuroprotection against H2O2-induced oxidative damage in rat PC12 cells assessed as reduction in ROS production by measuring mean fluorescence intensity at 5 uM preincubated for 4 hrs followed by H2O2 addition measured after 24 hrs by DCFH-DA staining-based flow cytometric analysis (reference value: 102489). In kind it is functional.
Series [14] deals with PC-12. Kind of series: Neuroprotection against H2O2-induced oxidative damage in rat PC12 cells assessed as early apoptotic cells at 2.5 uM after 24 hrs in presence of H2O2 by annexin V-FITC/propidium iodide staining based flow cytometric analysis (reference value: 29.3%). In kind it is functional.
In series [15] the test system is PC-12. Briefly: Neuroprotection against H2O2-induced oxidative damage in rat PC12 cells assessed as viable cells at 2.5 uM after 24 hrs in presence of H2O2 by annexin V-FITC/propidium iodide staining based flow cytometric analysis (reference value: 64.1%). In kind it is functional. As to conditions: PC-12, 24 h, read-out: Activity.
Series [16] is filed under the species Homo sapiens. Kind of series: Neuroprotection against LPS-induced inflammation in […] cells assessed as reduction in nitric oxide production at 10 to 25 uM after 18 hrs by Griess reagent based assay. In kind it is functional, cell-based.
For series [17], the species on record is Homo sapiens. Kind of series: Neuroprotection against LPS-induced inflammation in […] cells assessed as reduction in ROS production after 18 hrs by DCFH-DA staining-based flow cytometric analysis. In kind it is functional, cell-based.
The nature of series [18]: Neuroprotection against LPS-induced inflammation in human BV2 cells assessed as reduction in ROS production by measuring mean fluorescence intensity at 2.5 uM after 18 hrs by DCFH-DA staining-based flow cytometric analysis (reference value: 56792). In kind it is functional.
For series [19], the species on record is Homo sapiens. Briefly: Antiinflammatory activity in […] cells assessed as inhibition of LPS-induced TNF-alpha release preincubated for 1 hr followed by LPS addition measured after 18 hrs by ELISA. In kind it is functional, cell-based.
The nature of series [20]: in vitro. More on the design: dose or concentration left out as unconfirmed. As to conditions: PAMPA.
Description: Effective permeability of the compound at 100 mg/ml incubated for 16 hrs by PAMPA-BBB assay
In series [21] the test system is PC-12. Kind of series: Neuroprotection against H2O2-induced oxidative damage in rat PC12 cells assessed as reduction in ROS production by measuring mean fluorescence intensity at 5 uM preincubated for 4 hrs followed by H2O2 addition measured after 24 hrs by DCFH-DA staining-based flow cytometric analysis (reference value: 82616). In kind it is functional.
Series [22] has as its system PC-12. Kind of series: Neuroprotection against H2O2-induced oxidative damage in rat PC12 cells assessed as early apoptotic cells at 5 uM after 24 hrs in presence of H2O2 by annexin V-FITC/propidium iodide staining based flow cytometric analysis (reference value: 2.1%). In kind it is functional.
The subject of series [23] is PC-12. Briefly: Neuroprotection against H2O2-induced oxidative damage in rat PC12 cells assessed as intracellular Ca2+ level by measuring mean fluorescence intensity at 2.5 uM after 24 hrs in presence of H2O2 by Fluo-3/AM staining based flow cytometric analysis (reference value: 43156). In kind it is functional.

By IC50 is commonly meant the concentration that inhibits the measured activity by half. A word on the Papp: it is the rate of passage across a membrane or cell layer, normalised by area and donor concentration.

SMILES strings stand for the structures. Calls of active or inactive are those of the source. No cut-off for these calls is given here.

On to `CC(C)=CCc1c(O)cc(/C=C/c2ccc3c(c2)[C@H](c2cc(O)c(CC=C(C)C)c(O)c2)[C@@H](c2ccc(O)cc2)O3)cc1O`, for which the 50% inhibitory concentration (IC50) in [1] came to 2.6 µM; in series [2], 0.92 µM; in [4] it was 47 µM. Besides, the Ratio IC50 in [3] amounted to 2.83. Moreover, the Activity in [5] is 1.43 equiv; in series [6] it was 1.74 equiv; in series [8] it was “Dose-dependent effect”; in series [9], “Dose-dependent effect”; in [10], “Non-Toxic”; in series [11], “Dose-dependent effect”. Also, the figures for the Activity in series [14] and in series [17] were 19.4% and “Dose-dependent effect”, respectively. The result in series [7] and in series [16] was Active. Further, the Flu intensity in [12] is 97612; in series [13], 85417; in series [18], 31340. For the same compound, the viability at 2.5 µM in series [15] was 75.9%. Further, in series [19], the inhibition entry was “Dose-dependent effect”. The Papp at 16 h in series [20] came out at 10.1 ×10⁻⁶ cm/s.
In the case of `CC(C)=CCc1c(O)cc(/C=C/c2ccc3c(c2)[C@H](c2cc(O)c4c(c2)OC(C)(C)CC4)[C@@H](c2ccc(O)cc2)O3)cc1O`, the IC50 turned out to be 8.12 µM in series [1], 3.93 µM in series [2] and 35.3 µM in series [4]. In series [3], the Ratio IC50 is 2.07. In addition, the Activity is 1.7 equiv in [5]; 1.97 equiv in [6]; “Dose-dependent effect” in series [8]; “Dose-dependent effect” in [9]; “Non-Toxic” in [10]; “Dose-dependent effect” in [11]. Besides, the values for the Activity in series [22] and in series [17] were 1.9% and “Dose-dependent effect”, respectively. Also, the result in series [7] and in series [16] was Active. In addition, the values for the Flu intensity in series [21] and in series [23] were 58560 and 40869, respectively. For the same compound, in series [19], the inhibition entry was “Dose-dependent effect”. In [20], this compound gave a Papp at 16 h of 6.92 ×10⁻⁶ cm/s.
